Experimental data: ChEMBL document CHEMBL2434907, “Synthesis and SAR studies of benzimidazolone derivatives as histamine H3-receptor antagonists” (Bioorg Med Chem Lett, 2013)
pIC50, pKi: −log10 of the molar value.

Columns and labels:
Histamine H3 receptor = Histamine H3 receptor (Cavia porcellus, UniProt Q9JI35); assay: Displacement of [3H]-N-alpha-methyl histamine from histamine H3 receptor in guinea pig brain homogenates; type: tissue-based
Cytochrome P450 2D6 = Cytochrome P450 2D6 (Homo sapiens, UniProt P10635); assay: Inhibition of CYP2D6 in human liver microsomes; type: ADME, Microsome
Cytochrome P450 3A4 = Cytochrome P450 3A4 (Homo sapiens, UniProt P08684); assay: Inhibition of CYP3A4 in human liver microsomes; type: ADME, Microsome
[1] = AUC in Sprague-Dawley rat at 10 mg/kg, po; type: ADME, organism-based; design: dose 10 mg/kg, route oral; conditions: plasma
[2] = Plasma concentration in Sprague-Dawley rat at 10 mg/kg, po after 6 hrs; type: ADME, organism-based; design: dose 10 mg/kg, route oral

Sequence of Cytochrome P450 2D6 (P10635 whole entry): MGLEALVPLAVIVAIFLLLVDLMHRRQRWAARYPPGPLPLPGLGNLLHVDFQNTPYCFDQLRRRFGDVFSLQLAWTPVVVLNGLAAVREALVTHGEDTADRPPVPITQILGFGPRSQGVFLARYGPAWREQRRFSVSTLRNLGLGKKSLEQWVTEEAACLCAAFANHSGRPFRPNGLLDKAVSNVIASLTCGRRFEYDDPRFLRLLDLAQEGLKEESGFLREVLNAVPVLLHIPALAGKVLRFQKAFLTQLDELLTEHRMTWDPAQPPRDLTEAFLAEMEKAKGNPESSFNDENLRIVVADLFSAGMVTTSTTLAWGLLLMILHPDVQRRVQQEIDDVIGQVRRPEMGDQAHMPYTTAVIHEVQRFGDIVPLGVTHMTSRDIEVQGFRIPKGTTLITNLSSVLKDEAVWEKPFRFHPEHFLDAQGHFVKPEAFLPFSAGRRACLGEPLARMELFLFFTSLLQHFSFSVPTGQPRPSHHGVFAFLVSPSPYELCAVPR
Sequence of Cytochrome P450 3A4 (P08684 whole entry): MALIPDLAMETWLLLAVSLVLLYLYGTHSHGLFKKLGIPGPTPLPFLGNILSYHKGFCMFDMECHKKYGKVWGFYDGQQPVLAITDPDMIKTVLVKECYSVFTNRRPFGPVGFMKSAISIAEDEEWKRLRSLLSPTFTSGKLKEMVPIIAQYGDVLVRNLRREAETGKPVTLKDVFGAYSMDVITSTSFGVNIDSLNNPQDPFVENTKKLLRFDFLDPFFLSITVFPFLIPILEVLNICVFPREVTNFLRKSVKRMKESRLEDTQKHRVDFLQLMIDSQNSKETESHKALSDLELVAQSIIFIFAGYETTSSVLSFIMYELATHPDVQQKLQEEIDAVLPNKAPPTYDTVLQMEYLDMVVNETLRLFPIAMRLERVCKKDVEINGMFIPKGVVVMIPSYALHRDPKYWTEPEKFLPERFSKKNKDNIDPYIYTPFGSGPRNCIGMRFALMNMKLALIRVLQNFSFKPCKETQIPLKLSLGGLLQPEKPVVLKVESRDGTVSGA
Sequence of Histamine H3 receptor (Q9JI35 whole entry): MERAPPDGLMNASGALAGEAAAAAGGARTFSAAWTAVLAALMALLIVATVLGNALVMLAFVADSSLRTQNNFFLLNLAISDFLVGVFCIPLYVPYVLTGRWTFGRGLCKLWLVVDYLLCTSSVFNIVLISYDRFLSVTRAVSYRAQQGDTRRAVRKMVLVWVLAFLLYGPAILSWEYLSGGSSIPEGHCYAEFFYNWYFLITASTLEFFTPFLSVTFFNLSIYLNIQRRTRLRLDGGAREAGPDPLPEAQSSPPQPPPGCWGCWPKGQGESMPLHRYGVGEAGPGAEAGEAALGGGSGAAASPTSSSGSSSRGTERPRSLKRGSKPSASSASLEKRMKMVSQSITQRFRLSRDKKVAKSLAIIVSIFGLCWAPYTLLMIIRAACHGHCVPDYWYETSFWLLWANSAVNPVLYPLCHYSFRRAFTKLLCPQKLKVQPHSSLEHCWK

pKi (Histamine H3 receptor) | pIC50 (Cytochrome P450 2D6) | pIC50 (Cytochrome P450 3A4) | AUC [1] [µM·h] | concentration at 6 h [2] [nM] | Structure (SMILES)
7.92 | – | – | – | – | Nc1cc(CN2CCC(C(=O)N3CCC(n4c(=O)n(Cc5ccc(Cl)cc5)c5ccccc54)CC3)CC2)ccn1
8.22 | – | – | – | – | Nc1cc(CN2CCC(C(=O)N3CCC(n4c(=O)n(Cc5ccccc5)c5cc(F)ccc54)CC3)CC2)ccn1
9.22 | < 4.52 | < 4.52 | – | – | Nc1cc(CN2CCC(C(=O)N3CCC(n4c(=O)[nH]c5ccccc54)CC3)CC2)ccn1
7.11 | – | – | – | – | CC(c1ccc(Cl)c(Cl)c1)n1c(=O)n(C2CCN(C(=O)C3CCN(Cc4ccnc(N)c4)CC3)CC2)c2ccccc21 (stereo unspecified)
6.38 | – | – | – | – | CC(c1ccc(-c2ccc(F)cc2)cc1)n1c(=O)n(C2CCN(C(=O)C3CCN(Cc4ccnc(N)c4)CC3)CC2)c2ccccc21 (stereo unspecified)
– | < 4.52 | < 4.52 | 0.1 | – | COCCn1c(=O)n(C2CCN(C(=O)C3CCN(Cc4ccnc(N)c4)CC3)CC2)c2ccccc21
– | < 4.52 | < 4.52 | 10.9 | 1200 | Nc1cc(CN2CCC(C(=O)N3CCC(n4c(=O)n(-c5ccccn5)c5cc(F)ccc54)CC3)CC2)ccn1

More lines, now with the values behind:

Structure (SMILES) | pKi (Histamine H3 receptor) | pIC50 (Cytochrome P450 2D6) | pIC50 (Cytochrome P450 3A4) | AUC [1] [µM·h] | concentration at 6 h [2] [nM]
Nc1cc(CN2CCC(C(=O)N3CCC(n4c(=O)n(CCCC(F)(F)F)c5ccccc54)CC3)CC2)ccn1 | – | < 4.52 | < 4.52 | – | –
Nc1cc(CN2CCC(C(=O)N3CCC(n4c(=O)n(CCN5CCOCC5)c5ccccc54)CC3)CC2)ccn1 | – | < 4.52 | 4.52 | – | –
Nc1cc(CN2CCC(C(=O)N3CCC(n4c(=O)n(CCN5CCOCC5)c5cc(F)ccc54)CC3)CC2)ccn1 | 8.64 | < 4.52 | < 4.52 | – | –
Nc1cc(CN2CCC(C(=O)N3CCC(n4c(=O)n(CCCC(F)(F)F)c5cc(F)ccc54)CC3)CC2)ccn1 | – | < 4.52 | 4.52 | 4.1 | 510
CC(C)Cn1c(=O)n(C2CCN(C(=O)C3CCN(Cc4ccnc(N)c4)CC3)CC2)c2ccc(F)cc21 | – | < 4.52 | < 4.52 | – | –
Nc1cc(CN2CCC(C(=O)N3CCC(n4c(=O)n(CC(F)(F)F)c5cc(F)ccc54)CC3)CC2)ccn1 | – | < 4.52 | < 4.52 | 1.2 | 130
Nc1cc(CN2CCC(C(=O)N3CCC(n4c(=O)n(CC5CC5)c5cc(F)ccc54)CC3)CC2)ccn1 | – | < 4.52 | 4.52 | 3.5 | 260
Nc1cc(CN2CCC(C(=O)N3CCC(n4c(=O)n(C5CCCC5)c5cc(F)ccc54)CC3)CC2)ccn1 | – | < 4.52 | 4.66 | 1.8 | 200
Nc1cc(CN2CCC(C(=O)N3CCC(n4c(=O)n(CC5CCCCC5)c5cc(F)ccc54)CC3)CC2)ccn1 | – | < 4.52 | < 4.52 | – | –
Nc1cc(CN2CCC(C(=O)N3CCC(n4c(=O)n(-c5ccc(F)c(F)c5)c5cc(F)ccc54)CC3)CC2)ccn1 | – | < 4.52 | < 4.52 | 5.1 | 680
Nc1cc(CN2CCC(C(=O)N3CCC(n4c(=O)n(-c5cc(F)cc(F)c5)c5cc(F)ccc54)CC3)CC2)ccn1 | – | < 4.52 | < 4.52 | 12.9 | 1850
Nc1cc(CN2CCC(C(=O)N3CCC(n4c(=O)n(-c5ncccn5)c5cc(F)ccc54)CC3)CC2)ccn1 | – | < 4.52 | < 4.52 | – | –
Nc1cc(CN2CCC(C(=O)N3CCC(n4c(=O)n(-c5cnccn5)c5cc(F)ccc54)CC3)CC2)ccn1 | 9.30 | < 4.52 | < 4.52 | 3.7 | 500
